What was measured:
Assay in all cases: Test A pre-/postemergence greenhouse herbicide test, visual injury rating 0-100
Format in all cases: in vivo
corn (Zea mays) = system: corn (Zea mays)
Description: (§1) Seeds of plant species selected from barnyardgrass (Echinochloa crus-galli), large (Lg) crabgrass (Digitaria sanguinalis), giant foxtail (Setaria faberii), morningglory (Ipomoea spp.), pigweed (Amaranthus retroflexus), velvetleaf (Abutilon theophrasti), wheat (Triticum aestivum), and corn (Zea mays) were planted into a blend of loam soil and sand and treated preemergence with a directed soil spray using test chemicals formulated in a non-phytotoxic solvent mixture which included a surfactant. At the same time these species were also treated with postemergence applications of test chemicals formulated in the same manner. Plants ranged in height from 2 to 10 cm and were in the one- to two-leaf stage for the postemergence treatment. Treated plants and untreated controls were maintained in a greenhouse for approximately 10 days, after which time all treated plants were compared to untreated controls and visually evaluated for injury. Plant response ratings, summarized in Table A, are based on a 0 to 100 scale where 0 is no effect and 100 is complete control. A dash (-) response means no test result.

[1] = system: barnyardgrass (Echinochloa crus-galli)
Description: as §1

[2] = system: giant foxtail (Setaria faberii)
Description: as §1

[3] = system: pigweed (Amaranthus retroflexus)
Description: as §1

[4] = system: wheat (Triticum aestivum)
Description: as §1

[5] = system: morningglory (Ipomoea spp.)
Description: as §1

[6] = system: velvetleaf (Abutilon theophrasti)
Description: as §1

[7] = system: large (Lg) crabgrass (Digitaria sanguinalis)
Description: as §1

## Clc1cc(Cl)cc(-c2n[nH]cc2C2(c3ccccc3)SCCCS2)c1 [Compound 63]
Corn (Zea mays); Postemergence, 125 g ai/ha
  Plant response rating (0 to 100 scale), Corn: 0
Corn (Zea mays); Postemergence, 500 g ai/ha
  Plant response rating (0 to 100 scale), Corn: 0
Corn (Zea mays); Preemergence, 125 g ai/ha
  Corn plant response rating (0 = no effect, 100 = complete control): 0
Corn (Zea mays); Preemergence, 500 g ai/ha
  Plant response rating (0 to 100 scale), Corn: 0
[1]; Postemergence, 125 g ai/ha
  Plant response rating (0 to 100 scale), Barnyardgrass: 0
[1]; Postemergence, 500 g ai/ha
  Plant response rating (0 to 100 scale), Barnyardgrass: 0
[1]; Preemergence, 125 g ai/ha
  Barnyardgrass plant response rating (0 = no effect, 100 = complete control): 0
[1]; Preemergence, 500 g ai/ha
  Plant response rating (0 to 100 scale), Barnyardgrass: 0
[2]; Postemergence, 125 g ai/ha
  Plant response rating (0 to 100 scale), Foxtail, Giant: 0
[2]; Postemergence, 500 g ai/ha
  Plant response rating (0 to 100 scale), Foxtail, Giant: 0
[2]; Preemergence, 125 g ai/ha
  Foxtail, Giant plant response rating (0 = no effect, 100 = complete control): 0
[2]; Preemergence, 500 g ai/ha
  Plant response rating (0 to 100 scale), Foxtail, Giant: 0
[3]; Postemergence, 125 g ai/ha
  Plant response rating (0 to 100 scale), Pigweed: 20
[3]; Postemergence, 500 g ai/ha
  Plant response rating (0 to 100 scale), Pigweed: 80
[3]; Preemergence, 125 g ai/ha
  Pigweed plant response rating (0 = no effect, 100 = complete control): 0
[3]; Preemergence, 500 g ai/ha
  Plant response rating (0 to 100 scale), Pigweed: 60
[4]; Postemergence, 125 g ai/ha
  Plant response rating (0 to 100 scale), Wheat: 0
[4]; Postemergence, 500 g ai/ha
  Plant response rating (0 to 100 scale), Wheat: 0
[4]; Preemergence, 125 g ai/ha
  Wheat plant response rating (0 = no effect, 100 = complete control): 0
[5]; Postemergence, 125 g ai/ha
  Plant response rating (0 to 100 scale), Morningglory: 0
[5]; Postemergence, 500 g ai/ha
  Plant response rating (0 to 100 scale), Morningglory: 0
[5]; Preemergence, 125 g ai/ha
  Morningglory plant response rating (0 = no effect, 100 = complete control): 0
[5]; Preemergence, 500 g ai/ha
  Plant response rating (0 to 100 scale), Morningglory: 0
[6]; Postemergence, 125 g ai/ha
  Plant response rating (0 to 100 scale), Velvetleaf: 10
[6]; Postemergence, 500 g ai/ha
  Plant response rating (0 to 100 scale), Velvetleaf: 60
[6]; Preemergence, 125 g ai/ha
  Velvetleaf plant response rating (0 = no effect, 100 = complete control): 0
[6]; Preemergence, 500 g ai/ha
  Plant response rating (0 to 100 scale), Velvetleaf: 0
[7]; Postemergence, 125 g ai/ha
  Plant response rating (0 to 100 scale), Crabgrass, Large: 0
[7]; Postemergence, 500 g ai/ha
  Plant response rating (0 to 100 scale), Crabgrass, Large: 0
[7]; Preemergence, 125 g ai/ha
  Crabgrass, Large plant response rating (0 = no effect, 100 = complete control): 0
[7]; Preemergence, 500 g ai/ha
  Plant response rating (0 to 100 scale), Crabgrass, Large: 0

## CON=C(c1ccccc1)c1c[nH]nc1-c1cc(Cl)cc(Cl)c1 [Compound 64]
Corn (Zea mays); Postemergence, 1000 g ai/ha
  Plant response rating (0 to 100 scale), Corn: 0
Corn (Zea mays); Preemergence, 1000 g ai/ha
  Plant response rating (0 to 100 scale), Corn: 0
[1]; Postemergence, 1000 g ai/ha
  Plant response rating (0 to 100 scale), Barnyardgrass: 0
[1]; Preemergence, 1000 g ai/ha
  Plant response rating (0 to 100 scale), Barnyardgrass: 0
[2]; Postemergence, 1000 g ai/ha
  Plant response rating (0 to 100 scale), Foxtail, Giant: 0
[2]; Preemergence, 1000 g ai/ha
  Plant response rating (0 to 100 scale), Foxtail, Giant: 0
[3]; Postemergence, 1000 g ai/ha
  Plant response rating (0 to 100 scale), Pigweed: 80
[3]; Preemergence, 1000 g ai/ha
  Plant response rating (0 to 100 scale), Pigweed: 0
[4]; Postemergence, 1000 g ai/ha
  Plant response rating (0 to 100 scale), Wheat: 0
[4]; Preemergence, 1000 g ai/ha
  Plant response rating (0 to 100 scale), Wheat: 0
[5]; Postemergence, 1000 g ai/ha
  Plant response rating (0 to 100 scale), Morningglory: 0
[5]; Preemergence, 1000 g ai/ha
  Plant response rating (0 to 100 scale), Morningglory: 0
[6]; Postemergence, 1000 g ai/ha
  Plant response rating (0 to 100 scale), Velvetleaf: 80
[6]; Preemergence, 1000 g ai/ha
  Plant response rating (0 to 100 scale), Velvetleaf: 0
[7]; Postemergence, 1000 g ai/ha
  Plant response rating (0 to 100 scale), Crabgrass, Large: 0
[7]; Preemergence, 1000 g ai/ha
  Plant response rating (0 to 100 scale), Crabgrass, Large: 0

## N=C(c1ccccc1)c1c[nH]nc1-c1cc(Cl)cc(Cl)c1 [Compound 68]
Corn (Zea mays); Postemergence, 1000 g ai/ha
  Plant response rating (0 to 100 scale), Corn: 0
Corn (Zea mays); Preemergence, 1000 g ai/ha
  Plant response rating (0 to 100 scale), Corn: 0
[1]; Postemergence, 1000 g ai/ha
  Plant response rating (0 to 100 scale), Barnyardgrass: 0
[1]; Preemergence, 1000 g ai/ha
  Plant response rating (0 to 100 scale), Barnyardgrass: 0
[2]; Postemergence, 1000 g ai/ha
  Plant response rating (0 to 100 scale), Foxtail, Giant: 0
[2]; Preemergence, 1000 g ai/ha
  Plant response rating (0 to 100 scale), Foxtail, Giant: 0
[3]; Postemergence, 1000 g ai/ha
  Plant response rating (0 to 100 scale), Pigweed: 100
[3]; Preemergence, 1000 g ai/ha
  Plant response rating (0 to 100 scale), Pigweed: 100
[4]; Postemergence, 1000 g ai/ha
  Plant response rating (0 to 100 scale), Wheat: 0
[4]; Preemergence, 1000 g ai/ha
  Plant response rating (0 to 100 scale), Wheat: 0
[5]; Postemergence, 1000 g ai/ha
  Plant response rating (0 to 100 scale), Morningglory: 0
[5]; Preemergence, 1000 g ai/ha
  Plant response rating (0 to 100 scale), Morningglory: 0
[6]; Postemergence, 1000 g ai/ha
  Plant response rating (0 to 100 scale), Velvetleaf: 90
[6]; Preemergence, 1000 g ai/ha
  Plant response rating (0 to 100 scale), Velvetleaf: 100
[7]; Postemergence, 1000 g ai/ha
  Plant response rating (0 to 100 scale), Crabgrass, Large: 0
[7]; Preemergence, 1000 g ai/ha
  Plant response rating (0 to 100 scale), Crabgrass, Large: 0

## Clc1cc(Cl)cc(-c2n[nH]cc2C2(c3ccccc3)SCCS2)c1 [Compound 69]
Corn (Zea mays); Postemergence, 125 g ai/ha
  Plant response rating (0 to 100 scale), Corn: 0
Corn (Zea mays); Postemergence, 500 g ai/ha
  Plant response rating (0 to 100 scale), Corn: 0
Corn (Zea mays); Preemergence, 125 g ai/ha
  Corn plant response rating (0 = no effect, 100 = complete control): 0
Corn (Zea mays); Preemergence, 500 g ai/ha
  Plant response rating (0 to 100 scale), Corn: 0
[1]; Postemergence, 125 g ai/ha
  Plant response rating (0 to 100 scale), Barnyardgrass: 0
[1]; Postemergence, 500 g ai/ha
  Plant response rating (0 to 100 scale), Barnyardgrass: 0
[1]; Preemergence, 125 g ai/ha
  Barnyardgrass plant response rating (0 = no effect, 100 = complete control): 0
[1]; Preemergence, 500 g ai/ha
  Plant response rating (0 to 100 scale), Barnyardgrass: 0
[2]; Postemergence, 125 g ai/ha
  Plant response rating (0 to 100 scale), Foxtail, Giant: 0
[2]; Postemergence, 500 g ai/ha
  Plant response rating (0 to 100 scale), Foxtail, Giant: 0
[2]; Preemergence, 125 g ai/ha
  Foxtail, Giant plant response rating (0 = no effect, 100 = complete control): 0
[2]; Preemergence, 500 g ai/ha
  Plant response rating (0 to 100 scale), Foxtail, Giant: 0
[3]; Postemergence, 125 g ai/ha
  Plant response rating (0 to 100 scale), Pigweed: 30
[3]; Postemergence, 500 g ai/ha
  Plant response rating (0 to 100 scale), Pigweed: 80
[3]; Preemergence, 125 g ai/ha
  Pigweed plant response rating (0 = no effect, 100 = complete control): 0
[3]; Preemergence, 500 g ai/ha
  Plant response rating (0 to 100 scale), Pigweed: 40
[4]; Postemergence, 125 g ai/ha
  Plant response rating (0 to 100 scale), Wheat: 0
[4]; Postemergence, 500 g ai/ha
  Plant response rating (0 to 100 scale), Wheat: 0
[4]; Preemergence, 125 g ai/ha
  Wheat plant response rating (0 = no effect, 100 = complete control): 0
[5]; Postemergence, 125 g ai/ha
  Plant response rating (0 to 100 scale), Morningglory: 0
[5]; Postemergence, 500 g ai/ha
  Plant response rating (0 to 100 scale), Morningglory: 0
[5]; Preemergence, 125 g ai/ha
  Morningglory plant response rating (0 = no effect, 100 = complete control): 0
[5]; Preemergence, 500 g ai/ha
  Plant response rating (0 to 100 scale), Morningglory: 0
[6]; Postemergence, 125 g ai/ha
  Plant response rating (0 to 100 scale), Velvetleaf: 20
[6]; Postemergence, 500 g ai/ha
  Plant response rating (0 to 100 scale), Velvetleaf: 80
[6]; Preemergence, 125 g ai/ha
  Velvetleaf plant response rating (0 = no effect, 100 = complete control): 0
[6]; Preemergence, 500 g ai/ha
  Plant response rating (0 to 100 scale), Velvetleaf: 20
[7]; Postemergence, 125 g ai/ha
  Plant response rating (0 to 100 scale), Crabgrass, Large: 0
[7]; Postemergence, 500 g ai/ha
  Plant response rating (0 to 100 scale), Crabgrass, Large: 0
[7]; Preemergence, 125 g ai/ha
  Crabgrass, Large plant response rating (0 = no effect, 100 = complete control): 0
[7]; Preemergence, 500 g ai/ha
  Plant response rating (0 to 100 scale), Crabgrass, Large: 0
